Assay results published in publication PMC3401595 (Bioorganic & medicinal chemistry, 2012).

Assays:
δ opioid receptor = δ opioid receptor (Homo sapiens, UniProt P41143); experiment: biochemical; format: binding
[1] = systemic administration; greater than I; cited from earlier work
[2] = higher than I; cited from earlier work
[3] = higher than I; cited from earlier work; remark: listed apart in the source

δ opioid receptor, sequence (P41143 whole entry): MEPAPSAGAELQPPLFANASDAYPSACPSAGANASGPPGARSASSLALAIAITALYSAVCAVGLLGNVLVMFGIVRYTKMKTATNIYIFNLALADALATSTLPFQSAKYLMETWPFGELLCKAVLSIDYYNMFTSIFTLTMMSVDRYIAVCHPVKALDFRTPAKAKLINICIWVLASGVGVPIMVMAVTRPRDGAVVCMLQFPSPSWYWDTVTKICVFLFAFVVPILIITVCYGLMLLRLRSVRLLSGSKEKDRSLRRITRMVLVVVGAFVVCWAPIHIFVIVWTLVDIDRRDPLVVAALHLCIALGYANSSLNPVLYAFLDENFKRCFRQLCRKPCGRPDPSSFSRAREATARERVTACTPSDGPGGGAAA

Compound | Ki (δ opioid receptor) [µM] | other results
CCCCN(CCCC)CCOC/C=C/c1ccccc1 [Compound 17, 2-(Cinnamyloxy)-N,N-dibutylethanamine] | > 10 | –
CCCCN(CCCC)CCOCCCc1ccccc1 [Compound 18, N,N-dibutyl-2-(3-phenylpropoxy)ethanamine] | > 10 | –
CN(CCOC/C=C/c1ccccc1)Cc1ccccc1 [Compound 33, N-benzyl-2-(cinnamyloxy)-N-methylethanamine] | > 10 | –
CN(CCOCCCc1ccccc1)Cc1ccccc1 [Compound 34, N-benzyl-N-methyl-2-(3-phenylpropoxy)ethanamine] | > 10 | –
CN(CCCc1ccccc1)CCOC/C=C/c1ccccc1 [Compound 37, 2-(Cinnamyloxy)-N-methyl-N-phenylpropylethanamine] | > 10 | –
CO[C@@]12CCC(=O)[C@]3(C)Oc4c(O)ccc5c4[C@@]31CCN(C)[C@@H]2C5 [II, 14-methoxymetopon] | – | systemic antinociceptive potency relative to I (morphine) [1]: 500 fold
CN1CCC23c4c5ccc(O)c4OC2(C)C(=O)CCC3(OCCCc2ccccc2)C1C5 (centres unmarked) [III, 14-phenylpropyloxymetopon] | – | potency in the tail flick assay as compared to I (morphine) [2]: 24000 fold; potency in the hot plate assay as compared to I (morphine) [3]: 8500 fold
